Laboratory results as given in patent US12569430B2 (priority 2021, dated 2026).
Values after ≈ are worked out from the molar mass of the structure shown. Where a name gives a salt, the structure may show the parent alone. Read-outs that look alike come from different tables or passages of the source. One block for each molecule: values may come before it.

Key:
[1] = cited from earlier work
[2] = Saturation solubility of naltrexone in different media; format: physicochemical; conditions: thermodynamic from solid, read-out: Solubility of API
[3] = Toxicokinetics after subcutaneous implant; format: in vivo, Yucatan minipigs; conditions: single subcutaneous implant, 1 g NTX (Group 2) vs 1 g NTX with 10 mg TCA (Group 3)
[4] = In vitro dissolution of pellets, USP dissolution apparatus II (paddle); conditions: for Release Triamcinolone, %: n = 1
Experimental: The parameters used in the dissolution study are given below.
A USP dissolution apparatus II (paddle) (Agilent Technologies, Inc., Santa Clara, CA) was used for dissolution method parameters selection. For accelerated dissolution method development multiple parameters were evaluated: • 1). temperature of the dissolution media; • 2). initial wetting of the pellet (by adding detergent and organic solvent); • 3). the mixing speed; and • 4). the pH of the dissolution media used.
Water was used as the starting media. A sampling timepoint (at 66 or 90 hours) was used for initial dissolution parameter assessment.
The dissolution tests were performed in “sink” conditions where the amount of solvent was at least 3 times higher than the minimum amount of solvent required for dissolution.
Therefore, for the next step of the dissolution method development, 20% of ethanol was added to the dissolution media with a phosphate buffer.
Samples were taken at 8, 24, 48, 72 and 84 hours.

Compound: O=C1CC[C@@]2(O)[C@H]3Cc4ccc(O)c5c4[C@@]2(CCN3CC2CC2)[C@H]1O5 [naltrexone hydrochloride]
solubility in EtOH [1]: < 1000 µg/mL

Compound: O=C1CC[C@@]2(O)[C@H]3Cc4ccc(O)c5c4[C@@]2(CCN3CC2CC2)[C@H]1O5 [naltrexone, (4R,4aS,7aR,12bS)-3-(cyclopropylmethyl)-4a,9-dihydroxy-2,4,5,6,7a,13-hexahydro-1H-4,12-methanobenzofuro[3,2-e]isoquinolin-7-one]
solubility ([2]; pH 5, aqueous buffer, Hanks' Balanced Salt solution pH5.0): 770 µg/mL
solubility ([2]; pH 5, aqueous buffer, PBS pH5.0 (1:5)): 5210 µg/mL (≈ 15.3 mM)
solubility ([2]; pH 5.5, aqueous buffer, PBS pH5.5 (1:5)): 3120 µg/mL (≈ 9.14 mM)
solubility ([2]; pH 5.5, aqueous with cosolvent or surfactant or cyclodextrin, 20% EtOH + 80% PBS pH5.5 (1:10)): 5730 µg/mL
solubility ([2]; pH 6, aqueous buffer, PBS pH6.0 (1:5)): 2910 µg/mL (≈ 8.52 mM)
solubility ([2]; pH 7.4, aqueous buffer, Hanks' Balanced Salt solution pH7.4): 670 µg/mL
solubility ([2]; pH 7.4, aqueous buffer, PBS pH7.4): 960 µg/mL (≈ 2.81 mM)
solubility ([2]; pH 8, aqueous buffer, Hanks' Balanced Salt solution pH8.0): 650 µg/mL
solubility ([2]; pH 8, aqueous buffer, PBS pH8.0): 750 µg/mL (≈ 2.2 mM)
Systemic exposure to NTX (Cmax and AUC) [3]: did not appear to be impacted

Release of triamcinolone acetonide (TCA) from pellets ([4]; 10 mM Acetate buffer pH 3.8, 50 RPM at 37° C., 8 hrs): 24.63%
Release of triamcinolone acetonide (TCA) from pellets ([4]; 10 mM Acetate buffer pH 3.8, 50 RPM at 37° C., 24 hrs): 62.64%
Release of triamcinolone acetonide (TCA) from pellets ([4]; 10 mM Acetate buffer pH 3.8, 50 RPM at 37° C., 48 hrs): 79.58%
Release of triamcinolone acetonide (TCA) from pellets ([4]; 10 mM Acetate buffer pH 3.8, 50 RPM at 37° C., 72 hrs): 79.36%
Release of triamcinolone acetonide (TCA) from pellets ([4]; 10 mM Acetate buffer pH 5.0, 50 RPM at 37° C., 8 hrs): 17.27%
Release of triamcinolone acetonide (TCA) from pellets ([4]; 10 mM Acetate buffer pH 5.0, 50 RPM at 37° C., 24 hrs): 46.65%
Release of triamcinolone acetonide (TCA) from pellets ([4]; 10 mM Acetate buffer pH 5.0, 50 RPM at 37° C., 48 hrs): 69.50%
Release of triamcinolone acetonide (TCA) from pellets ([4]; 10 mM Acetate buffer pH 5.0, 50 RPM at 37° C., 72 hrs): 78.13%
Release of triamcinolone acetonide (TCA) from pellets ([4]; 10 mM Acetate buffer pH 5.8, 50 RPM, 8 hrs): 4.93%
Release of triamcinolone acetonide (TCA) from pellets ([4]; 10 mM Acetate buffer pH 5.8, 50 RPM, 24 hrs): 15.62%
Release of triamcinolone acetonide (TCA) from pellets ([4]; 10 mM Acetate buffer pH 5.8, 50 RPM, 48 hrs): 23.89%
Release of triamcinolone acetonide (TCA) from pellets ([4]; 10 mM Acetate buffer pH 5.8, 50 RPM, 72 hrs): 29.78%
Release Triamcinolone, % ([4]; 10 mM PBS pH 7.4, 50 RPM, 37° C., 66 hrs): 33.12%
Release of triamcinolone acetonide (TCA) from pellets ([4]; 10 mM phosphate buffer pH 5.0, 50 RPM at 37° C., 8 hrs): 15.30%
Release of triamcinolone acetonide (TCA) from pellets ([4]; 10 mM phosphate buffer pH 5.0, 50 RPM at 37° C., 24 hrs): 47.19%
Release of triamcinolone acetonide (TCA) from pellets ([4]; 10 mM phosphate buffer pH 5.0, 50 RPM at 37° C., 48 hrs): 75.78%
Release of triamcinolone acetonide (TCA) from pellets ([4]; 10 mM phosphate buffer pH 5.0, 50 RPM at 37° C., 72 hrs): 81.56%
Release of triamcinolone acetonide (TCA) from pellets ([4]; 10 mM phosphate buffer pH 6.0, 50 RPM at 37° C., 8 hrs): 12.51%
Release of triamcinolone acetonide (TCA) from pellets ([4]; 10 mM phosphate buffer pH 6.0, 50 RPM at 37° C., 24 hrs): 41.72%
Release of triamcinolone acetonide (TCA) from pellets ([4]; 10 mM phosphate buffer pH 6.0, 50 RPM at 37° C., 48 hrs): 74.31%
Release of triamcinolone acetonide (TCA) from pellets ([4]; 10 mM phosphate buffer pH 6.0, 50 RPM at 37° C., 72 hrs): 80.00%
Release of triamcinolone acetonide (TCA) from pellets ([4]; 10 mM phosphate buffer pH 7.4, 150 RPM at 37° C., 8 hrs): 16.66%
Release of triamcinolone acetonide (TCA) from pellets ([4]; 10 mM phosphate buffer pH 7.4, 150 RPM at 37° C., 24 hrs): 39.78%
Release of triamcinolone acetonide (TCA) from pellets ([4]; 10 mM phosphate buffer pH 7.4, 150 RPM at 37° C., 48 hrs): 52.83%
Release of triamcinolone acetonide (TCA) from pellets ([4]; 10 mM phosphate buffer pH 7.4, 150 RPM at 37° C., 72 hrs): 59.58%
Release of triamcinolone acetonide (TCA) from pellets ([4]; 10 mM phosphate buffer/20% EtOH pH 6.0, 50/75 RPM at 37° C., 8 hrs): 33.18%
Release of triamcinolone acetonide (TCA) from pellets ([4]; 10 mM phosphate buffer/20% EtOH pH 6.0, 50/75 RPM at 37° C., 24 hrs): 87.99%
Release of triamcinolone acetonide (TCA) from pellets ([4]; 10 mM phosphate buffer/20% EtOH pH 6.0, 50/75 RPM at 37° C., 48 hrs): 109.67%
Release of triamcinolone acetonide (TCA) from pellets ([4]; 10 mM phosphate buffer/20% EtOH pH 6.0, 50/75 RPM at 37° C., 72 hrs): 109.28%
Release of triamcinolone acetonide (TCA) from pellets ([4]; 10 mM phosphate buffer/20% EtOH pH 6.5, 50/75 RPM at 37° C., 8 hrs): 28.58%
Release of triamcinolone acetonide (TCA) from pellets ([4]; 10 mM phosphate buffer/20% EtOH pH 6.5, 50/75 RPM at 37° C., 24 hrs): 76.69%
Release of triamcinolone acetonide (TCA) from pellets ([4]; 10 mM phosphate buffer/20% EtOH pH 6.5, 50/75 RPM at 37° C., 48 hrs): 104.85%
Release of triamcinolone acetonide (TCA) from pellets ([4]; 10 mM phosphate buffer/20% EtOH pH 6.5, 50/75 RPM at 37° C., 72 hrs): 104.64%
Release of triamcinolone acetonide (TCA) from pellets ([4]; 10 mM phosphate buffer/20% EtOH pH 7.4, 50/75 RPM at 37° C., 8 hrs): 23.48%
Release of triamcinolone acetonide (TCA) from pellets ([4]; 10 mM phosphate buffer/20% EtOH pH 7.4, 50/75 RPM at 37° C., 24 hrs): 64.52%
Release of triamcinolone acetonide (TCA) from pellets ([4]; 10 mM phosphate buffer/20% EtOH pH 7.4, 50/75 RPM at 37° C., 48 hrs): 98.10%
Release of triamcinolone acetonide (TCA) from pellets ([4]; 10 mM phosphate buffer/20% EtOH pH 7.4, 50/75 RPM at 37° C., 72 hrs): 107.29%
Release Triamcinolone, % ([4]; 20 mM Acetate Buffer pH 3.8, 50 RPM, 37° C., 66 hrs): 83.52%
Release Triamcinolone, % ([4]; 0.05N HCl, pH 1, 50 RPM, 37° C., 66 hrs): 85.59%
Release Triamcinolone, % ([4]; 0.1% SLS in Water, 50 RPM, 37° C., 66 hrs): 39.09%
Release Triamcinolone, % ([4]; 20% EtOH, 80% Water, 50 RPM, 37° C., 90 hrs): 61.77%
Release Triamcinolone, % ([4]; Water, 50 RPM, 37° C., 90 hrs): 31.50%
Release Triamcinolone, % ([4]; Water, 60 RPM, 60° C., 66 hrs): 38.63%
Release Triamcinolone, % ([4]; Water, 150 RPM, 37° C., 66 hrs): 33.47%
Compound: CC1(C)O[C@@H]2C[C@H]3[C@@H]4CCC5=CC(=O)C=C[C@]5(C)[C@@]4(F)[C@@H](O)C[C@]3(C)[C@]2(C(=O)CO)O1 [triamcinolone acetonide (TCA), triamcinolone acetonide]
